Here are results for 7 compounds from PMC5176352, “Structural basis for subtype-specific inhibition of the P2X7 receptor” (eLife, 2016).

One experiment concerns the target full length pdP2X7 (Ailuropoda melanoleuca, UniProt G1M6C4). As to the kind of experiment: YO-PRO-1 uptake assay (inhibition of ATP-triggered dye uptake). The format is cell-based, giant panda (Ailuropoda melanoleuca). An excerpt: We further validated the drug-receptor interactions by site-directed mutagenesis on the drug-binding residues. To facilitate robust and systematic data collection, we monitored cellular uptake of the fluorescent dye, YO-PRO-1, as a proxy for receptor activity ([Surprenant et al., 1996]) (Figure 3—figure supplement 4A). […] In particular, interaction with F103 is crucial for the inhibitory action of all five drugs.
(§1) Human embryonic kidney (HEK293) cells were maintained in DMEM medium (Thermo Fisher Scientific) supplemented with 10% FBS (Atlanta Biologicals, Flowery Branch, GA), and 10 μg/mL gentamicin (Thermo Fisher Scientific). HEK293 cells were split into six well plates at a cell density of 2.0 × 10^6 cells/well and incubated overnight. […] Cells were washed with assay buffer (2 mM KCl, 0.1 mM CaCl2, 13 mM Glucose, 147 mM NaCl, 10 mM HEPES (pH 7.3)) and were incubated with 5 μM YO-PRO-1 Iodide (Thermo Fisher Scientific), in the presence or absence of antagonists at multiple concentrations at 37°C for 10 min. Upon application of 1 mM ATP (final), uptake of YO-PRO-1 was recorded with 1 min intervals by following the fluorescence change using a Synergy HT multi-detection microplate reader (Bio-Tek, Winooski, VT; Ex: 485 nm/20, Em:528 nm/20, sensitivity 60). To obtain the dose dependent uptake inhibition by antagonists, the initial rates of YO-PRO-1 uptake were plotted against multiple concentrations of the P2X7 specific drugs. The inhibition curves from five independent measurements were fitted to the Hill equation using Origin software (Originlab, Northampton, MA) to determine the IC50 values.

The target in a further experiment is wildtype pdP2X7 (Ailuropoda melanoleuca, UniProt G1M6C4). As to the kind of experiment: BzATP dose response of YO-PRO-1 uptake with antagonists, fitted with competitive / non-competitive inhibition models. The format is cell-based, giant panda (Ailuropoda melanoleuca). Conditions: for Kb: curve fitting of BzATP dose responses.
Text: To clarify the working mechanism for each drug, we measured the dose responses of the P2X7 mediated YO-PRO-1 uptake in the presence of each drug at multiple concentrations. We used BzATP—an artificial but potent agonist of P2X7 receptors—for these experiments to achieve saturating responses in the presence of concentrated antagonist.
as §1
Dose response curves of the YO-PRO-1 uptake experiments were fitted with either competitive or non-competitive inhibition models using Origin 6.0 software (OriginLab) as previously described ([Kenakin, 2006]). For the competitive antagonism model, we used the equation: Response=[A]/KA/[A]KA(1+τ)+[B]/KB+1
where [A] , [B] are the concentrations of BzATP and antagonists, respectively; KA and KB are the equilibrium dissociation-constant of BzATP and antagonists, respectively. […] KB was then determined using the dose response curves in the presence of antagonists. […] For the non-competitive inhibition model, we used the equation: Response=([A]^nτ^nEmax)/([A]^nτ^n+([A](1+α[B]/KB)+KA[B]/KB+KA)^n
where n is the Hill coefficient, and Emax is the maximum initial rate. […] Schild regression analysis was performed as described previously ([Wyllie and Chen, 2007]). Briefly, concentrations of BzATP at half maximal initial rates of YO-PRO-1 uptake in the presence (EC50’) or absence (EC50) of antagonists were determined by fitting the dose responses with the Hill equation.

In a further experiment the target is P2X7 receptor. The arrangement: method as in Yan et al., 2010. The following applies: under physiological ion concentrations; ref Yan et al., 2010; read-out: EC50 for initial activation; cited from earlier work.
The next experiment has as its target T1, pdP2X7 (Ailuropoda melanoleuca, UniProt G1M6C4).
T1 sequence (G1M6C4 2-606): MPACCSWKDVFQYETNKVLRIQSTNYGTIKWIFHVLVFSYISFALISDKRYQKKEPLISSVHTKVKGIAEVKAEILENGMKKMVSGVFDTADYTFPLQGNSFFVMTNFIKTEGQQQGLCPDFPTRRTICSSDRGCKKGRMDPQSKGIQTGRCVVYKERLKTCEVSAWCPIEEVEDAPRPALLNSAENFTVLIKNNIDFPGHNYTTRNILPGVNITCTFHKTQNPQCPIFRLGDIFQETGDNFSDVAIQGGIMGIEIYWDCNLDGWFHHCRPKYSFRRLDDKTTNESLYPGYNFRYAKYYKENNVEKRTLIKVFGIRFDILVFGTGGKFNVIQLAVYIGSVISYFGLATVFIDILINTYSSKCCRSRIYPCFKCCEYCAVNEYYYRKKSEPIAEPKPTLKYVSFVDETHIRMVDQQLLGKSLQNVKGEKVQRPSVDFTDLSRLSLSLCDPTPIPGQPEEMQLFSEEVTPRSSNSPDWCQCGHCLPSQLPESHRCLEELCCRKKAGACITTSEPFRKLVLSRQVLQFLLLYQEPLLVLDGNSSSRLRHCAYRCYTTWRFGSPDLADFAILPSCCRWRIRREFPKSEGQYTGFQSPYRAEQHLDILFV
As to the kind of experiment: Whole cell patch clamp ATP dose response. A general note: Patch clamp records ionic current or voltage across a cell membrane.

The target of the next experiment is T2, pdP2X7cryst (Ailuropoda melanoleuca, UniProt G1M6C4, E175K/N242S/N285S/R126A/V36A).
T2 sequence (G1M6C4 23-360 V36A/R126A/E175K/N242S/N285S): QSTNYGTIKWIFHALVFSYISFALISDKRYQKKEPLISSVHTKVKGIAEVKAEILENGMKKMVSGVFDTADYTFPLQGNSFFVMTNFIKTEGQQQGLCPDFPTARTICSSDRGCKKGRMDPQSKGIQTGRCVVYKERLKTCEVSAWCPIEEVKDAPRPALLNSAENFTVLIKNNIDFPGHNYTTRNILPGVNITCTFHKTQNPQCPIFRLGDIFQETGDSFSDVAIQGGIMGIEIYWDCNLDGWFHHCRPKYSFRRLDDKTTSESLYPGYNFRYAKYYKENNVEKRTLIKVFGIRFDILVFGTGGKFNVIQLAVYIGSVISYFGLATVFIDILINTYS
As to the kind of experiment: Whole cell patch clamp ATP dose response.

Where [1] appears, read: HEK293 cells, YO-PRO-1 uptake initiated with 1 mM ATP, initial rates, wildtype, read-out: IC50.
The mark [2] stands for this setting: competitive model, read-out: KB (equilibrium dissociation-constant of antagonist), competitive antagonism model.
Setting [3] is: non-competitive model, α = 1, read-out: KB (equilibrium dissociation-constant of antagonist), non-competitive inhibition model.
The mark [4] stands for this setting: KB (equilibrium dissociation-constant of antagonist), competitive antagonism model, competitive model.
[5] abbreviates: KB (equilibrium dissociation-constant of antagonist), non-competitive inhibition model, non-competitive model, α = 1.
Where [6] appears, read: data without antagonists, non-competitive model equation.
[7] abbreviates: dose response without antagonist, competitive model equation.

As a reminder, the IC50 is the point on the concentration scale where inhibition reaches its midpoint. What is called Kb is the affinity of an antagonist, worked out from how it opposes an agonist. The term EC50 denotes the concentration at which the effect is half-maximal.

Read-outs that look alike come from different tables or passages of the source.

For `COc1ccc(CC(=O)NC(N/C(=N/C#N)Nc2cccc3ncccc23)C(C)(C)C)cc1OC` (centres unmarked) [A740003, N-(1-{[(cyanoimino)(5-quinolinylamino)methyl]amino}-2,2-dimethylpropyl)-2-(3,4-dimethoxyphenyl)acetamide], the IC50 at full length pdP2X7 (setting [1]) was found to be 0.0693 µM. Further, the Kb at wildtype pdP2X7 (setting [2]) amounted to 0.024 µM; on wildtype pdP2X7 (setting [3]), 1.2 µM.

On to `C[C@H](N/C(=N/C#N)Nc1cccc2ncccc12)c1ccccc1` [A804598, 2-cyano-1-[(1S)-1-phenylethyl]-3-quinolin-5-ylguanidine], for which, on full length pdP2X7 (setting [1]), the 50% inhibitory concentration (IC50) came to 0.0217 µM. Besides, the values for the Kb on wildtype pdP2X7 (setting [2]) and on wildtype pdP2X7 (setting [3]) were 0.015 µM and 0.57 µM, respectively.

Take `Nc1ncnc2c1ncn2[C@@H]1O[C@H](COP(=O)(O)OP(=O)(O)OP(=O)(O)O)[C@@H](O)[C@H]1O` [ATP, adenosine triphosphate]: the EC50 at P2X7 receptor was ≥ 1000 µM; at pdP2X7, 122 µM; on pdP2X7cryst, 40 µM.

Turning to `O=C(CC12CC3CC(CC(C3)C1)C2)Nc1cccc2nc(NCCNCCO)ccc12` [AZ10606120], the IC50 at full length pdP2X7 worked out at 0.231 µM. Besides, the antagonist equilibrium constant (Kb) was determined as 0.056 µM on wildtype pdP2X7 (setting [4]) and 3.4 µM at wildtype pdP2X7 (setting [5]).

Take `Nc1ncnc2c1ncn2[C@@H]1O[C@H](COP(=O)(O)OP(=O)(O)OP(=O)(O)O)[C@@H](OC(=O)c2ccc(C(=O)c3ccccc3)cc2)[C@H]1O` [BzATP]: on wildtype pdP2X7 (setting [6]), the “KA (equilibrium dissociation-constant of BzATP), non-competitive inhibition model” value came to 220 µM; the “n (Hill coefficient), non-competitive inhibition model” value came to 2.6; the “τ, non-competitive inhibition model” value was 10. At wildtype pdP2X7 (setting [7]), the “KA (equilibrium dissociation-constant of BzATP), competitive antagonism model” value amounted to 28 µM and the “τ, competitive antagonism model” value is 0.031.

As to `Cc1ccc(CN2CCNCC2)cc1NC(=O)CNc1ccc(F)c(F)c1` [GW791343], the IC50 on full length pdP2X7 amounted to 8.9 µM. In addition, the Kb at wildtype pdP2X7 (setting [4]) was found to be 3 µM; at wildtype pdP2X7 (setting [5]) it was 266 µM.

`O=C(NCC1(N2CCN(c3ccccc3)CC2)CCOCC1)c1cccnc1Sc1ccccc1` [JNJ47965567]: the half-inhibitory concentration (IC50) on full length pdP2X7 was 0.0119 µM. Besides, the Kb at wildtype pdP2X7 (setting [4]) was 0.0017 µM; on wildtype pdP2X7 (setting [5]), 0.14 µM.
